{"source": "paper PMC2685736", "about": "“Conservation of a conformational switch in RadA recombinase from Methanococcus maripaludis” (Acta Crystallographica Section D: Biological Crystallography, 2009)", "key": {"[1]": {"biological_target": "T1, MmRadA (Methanococcus maripaludis, UniProt P0CW58)", "T1 construct": "gene radA; full open reading frame in pET28a (NcoI/XhoI), expressed in E. coli BL21 Rosetta2 (DE3); no tag mentioned; helical filament, nucleotide buried between adjacent monomers; P-loop Gly105-Thr112, His280, Asp302", "T1 sequence (P0CW58 whole entry)": "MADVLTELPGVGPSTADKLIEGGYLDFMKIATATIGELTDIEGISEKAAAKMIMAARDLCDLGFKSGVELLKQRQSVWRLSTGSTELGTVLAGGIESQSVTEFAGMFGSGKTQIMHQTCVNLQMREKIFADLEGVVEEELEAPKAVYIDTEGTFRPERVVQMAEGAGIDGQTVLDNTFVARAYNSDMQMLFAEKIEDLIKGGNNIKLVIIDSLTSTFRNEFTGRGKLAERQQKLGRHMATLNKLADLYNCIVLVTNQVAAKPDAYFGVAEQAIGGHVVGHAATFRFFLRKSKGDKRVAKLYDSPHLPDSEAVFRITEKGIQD", "assay": "X-ray crystallography, […]-2.[…] A", "assay_type": "binding", "conditions": "Mg2+, pH 7.9; 0.4 M NH4Cl (3ewa), 0.4 M KCl (3ew9) or 0.1 M NH4Cl (3etl); ATPase site at the monomer interface"}, "[2]": {"biological_target": "T1, MmRadA", "assay": "Malachite Green phosphate release (ATPase)", "assay_type": "biochemical", "conditions": "5 mM ATP, 10 mM MgCl2, pH 7.4, 100 mM KCl, poly-(dT)36 ssDNA; mere turnover"}}, "data": [{"compound": "Nc1ncnc2c1ncn2[C@@H]1O[C@H](COP(=O)(O)OP(=O)(O)NP(=O)(O)O)[C@@H](O)[C@H]1O", "note": "[AMPPNP]", "values": [{"measurement": "X-ray crystallography, 2.0-2.4 A", "setting": "[1]", "value": "The nonhydrolyzable ATP analogue AMPPNP is buried between the MmRadA monomers as expected."}]}, {"compound": "Nc1ncnc2c1ncn2[C@@H]1O[C@H](COP(=O)(O)OP(=O)(O)OP(=O)(O)O)[C@@H](O)[C@H]1O", "note": "[ATP]", "values": [{"measurement": "Malachite Green phosphate release (ATPase)", "setting": "[2]", "value": "the M. maripaludis protein also actively catalyzed ATP hydrolysis in the presence of potassium"}]}]}
